Where a name gives a salt, the structure may show the parent alone.
How the values were obtained:
[1] = target: T1, human JAK3 (a.a. 781-1124) (Homo sapiens, UniProt P52333); test: In vitro JAK kinase assay (HTRF), JAK3; assay type: biochemical; details: JAK3, 3 μM ATP; read-out: EXAMPLE A JAK2-JAK3 HTRF-2 IC50
T1 construct: JAK3 (a.a. 781-1124); His tag (N); made in house; host or cells: insect cells (baculovirus)
Method: (§1) Compounds herein were tested for inhibitory activity of JAK targets according to the following in vitro assay described in Park et al., Analytical Biochemistry 1999, 269, 94-104. The catalytic domains of human JAK1 (a.a. 837-1142), JAK2 (a.a. 828-1132) and JAK3 (a.a. 781-1124) with an N-terminal His tag were expressed using baculovirus in insect cells and purified. The catalytic activity of JAK1, JAK2 or JAK3 was assayed by measuring the phosphorylation of a biotinylated peptide. The phosphorylated peptide was detected by homogenous time resolved fluorescence (HTRF). IC50s of compounds were measured for each kinase in the reactions that contain the enzyme, ATP and 500 nM peptide in 50 mM Tris (pH 7.8) buffer with 100 mM NaCl, 5 mM DTT, and 0.1 mg/mL (0.01%) BSA. The ATP concentration in the reactions was 90 μM for JAK1, 30 μM for JAK2 and 3 μM for JAK3. Reactions were carried out at room temperature for 1 hr and then stopped with 20 μL 45 mM EDTA, 300 nM SA-APC, 6 nM Eu—Py20 in assay buffer (Perkin Elmer, Boston, Mass.). Binding to the Europium labeled antibody took place for 40 minutes and HTRF signal was measured on a Fusion plate reader (Perkin Elmer, Boston, Mass.).

[2] = target: T2, human JAK2 (a.a. 828-1132) (Homo sapiens, UniProt O60674); test: In vitro JAK kinase assay (HTRF), JAK2; assay type: biochemical; details: JAK2, 30 μM ATP; read-out: EXAMPLE A HTS-JAK2 HTRF-2 IC50
T2 construct: JAK2 (a.a. 828-1132); His tag (N); made in house; host or cells: insect cells (baculovirus)
T2 sequence (O60674 828-1132): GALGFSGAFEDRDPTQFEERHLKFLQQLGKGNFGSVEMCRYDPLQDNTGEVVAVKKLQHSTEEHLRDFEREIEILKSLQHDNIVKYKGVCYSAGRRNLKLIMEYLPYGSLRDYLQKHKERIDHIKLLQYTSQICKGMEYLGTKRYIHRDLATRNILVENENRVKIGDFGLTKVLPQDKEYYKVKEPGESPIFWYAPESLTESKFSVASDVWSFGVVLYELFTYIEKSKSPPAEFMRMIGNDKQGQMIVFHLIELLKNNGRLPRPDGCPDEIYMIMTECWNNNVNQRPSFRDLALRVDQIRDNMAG
Method: as §1

TF1-BCRABL1 cells = TF1-BCRABL1 cells (Homo sapiens, UniProt P00519); test: ABL1 cell based assay: viability of ABL1-dependent cell line (CellTiter-Glo); details: 72 hours, cell viability; read-out: EXAMPLE F JAK2-TF1-BCRABL1 IC50
Sequence of TF1-BCRABL1 cells (P00519 whole entry, change not shown): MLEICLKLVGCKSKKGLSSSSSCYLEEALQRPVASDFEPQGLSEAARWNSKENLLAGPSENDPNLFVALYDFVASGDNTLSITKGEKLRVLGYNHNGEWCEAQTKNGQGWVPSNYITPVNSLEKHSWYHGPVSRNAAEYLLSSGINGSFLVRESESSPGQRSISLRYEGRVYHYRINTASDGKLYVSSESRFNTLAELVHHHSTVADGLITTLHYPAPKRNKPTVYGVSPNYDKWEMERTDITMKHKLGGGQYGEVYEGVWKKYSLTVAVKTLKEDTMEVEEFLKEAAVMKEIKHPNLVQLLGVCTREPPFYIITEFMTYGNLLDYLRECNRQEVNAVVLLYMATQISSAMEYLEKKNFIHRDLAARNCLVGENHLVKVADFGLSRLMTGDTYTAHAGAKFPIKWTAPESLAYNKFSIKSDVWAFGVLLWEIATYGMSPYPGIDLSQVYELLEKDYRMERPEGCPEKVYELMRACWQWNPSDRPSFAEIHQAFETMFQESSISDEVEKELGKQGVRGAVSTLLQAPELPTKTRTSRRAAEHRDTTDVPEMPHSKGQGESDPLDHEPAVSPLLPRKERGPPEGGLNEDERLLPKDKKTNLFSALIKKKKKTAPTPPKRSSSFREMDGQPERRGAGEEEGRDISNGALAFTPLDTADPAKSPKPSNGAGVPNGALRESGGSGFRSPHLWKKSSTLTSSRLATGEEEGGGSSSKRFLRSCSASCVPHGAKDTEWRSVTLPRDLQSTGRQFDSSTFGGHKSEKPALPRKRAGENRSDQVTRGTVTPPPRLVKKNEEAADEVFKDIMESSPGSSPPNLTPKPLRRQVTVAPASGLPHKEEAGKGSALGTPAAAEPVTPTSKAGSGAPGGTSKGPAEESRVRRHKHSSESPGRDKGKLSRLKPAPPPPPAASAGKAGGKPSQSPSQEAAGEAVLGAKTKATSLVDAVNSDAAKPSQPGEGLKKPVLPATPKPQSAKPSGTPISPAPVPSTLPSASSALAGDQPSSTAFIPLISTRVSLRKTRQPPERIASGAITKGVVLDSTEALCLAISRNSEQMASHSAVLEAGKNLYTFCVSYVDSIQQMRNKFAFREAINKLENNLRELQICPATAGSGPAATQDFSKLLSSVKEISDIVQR
Method: One or more compounds herein were tested for inhibitory activity of ABL1 targets according to at least one of the following cellular assays.
Cancer cell lines dependent on ABL1 kinase activity for proliferation and/or survival were plated at 3000 cells per well (96 well plate format) in RPMI 1640, and 10% FBS. Compounds were added to the cells in DMSO/media (final concentration 0.2% DMSO) and incubated for 72 hours at 37° C., 5% CO2. The effect of compound on cell viability was assessed using the CellTiter-Glo Luminescent Cell Viability Assay (Promega) followed by TopCount (Perkin Elmer, Boston, Mass.) quantitation. ABL1-dependent cell lines can include those naturally dependent on ABL1 activity or those engineered to be dependent on ABL1 activity (e.g. BaF/3 cells). The latter can be generated using wild-type ABL1 or mutant ABL1 (such as T315I ABL1) so that the activity of compounds can be assessed against different variants of the ABL1 kinase. Potential off-target effects of compounds were measured in parallel using a non-ABL1 driven cell line with the same assay readout. […] All experiments were performed in duplicate or greater.

[3] = target: T3, human JAK1 (a.a. 837-1142) (Homo sapiens, UniProt P23458); test: In vitro JAK kinase assay (HTRF), JAK1; assay type: biochemical; details: JAK1, 90 μM ATP; read-out: EXAMPLE A JAK2-JAK1 HTRF-2 IC50
T3 construct: human JAK1 (a.a. 837-1142); His tag (N); made in house; host or cells: insect cells (baculovirus)
T3 sequence (P23458 849-1154): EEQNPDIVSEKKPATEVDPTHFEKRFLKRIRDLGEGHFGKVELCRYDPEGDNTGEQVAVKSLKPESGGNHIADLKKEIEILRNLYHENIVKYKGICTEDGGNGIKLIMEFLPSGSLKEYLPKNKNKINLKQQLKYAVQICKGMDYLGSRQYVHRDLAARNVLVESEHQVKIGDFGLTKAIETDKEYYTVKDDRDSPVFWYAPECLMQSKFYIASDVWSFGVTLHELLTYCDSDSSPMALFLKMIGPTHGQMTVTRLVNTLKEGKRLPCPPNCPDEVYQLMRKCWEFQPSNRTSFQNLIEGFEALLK
Method: as §1

T1 sequence (P52333 781-1124): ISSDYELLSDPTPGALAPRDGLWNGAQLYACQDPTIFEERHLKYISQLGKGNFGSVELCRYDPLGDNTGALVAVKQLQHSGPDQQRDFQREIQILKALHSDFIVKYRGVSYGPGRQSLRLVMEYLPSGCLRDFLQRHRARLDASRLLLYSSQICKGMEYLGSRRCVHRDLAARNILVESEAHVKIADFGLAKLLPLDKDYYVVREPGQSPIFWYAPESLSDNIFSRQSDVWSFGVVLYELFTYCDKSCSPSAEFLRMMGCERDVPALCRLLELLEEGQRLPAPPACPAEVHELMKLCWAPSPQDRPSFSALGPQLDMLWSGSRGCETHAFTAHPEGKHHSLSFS

SMILES	IC50 [1] [nM]	IC50 [2] [nM]	IC50 [3] [nM]	GI50 (TF1-BCRABL1 cells) [nM]
Cc1ccc(NC(=O)c2cccc(C(F)(F)F)c2)cc1-c1ccc2c(c1)[nH]c1nc(N)ncc12 [Example 67, N-[3-(2-Amino-9H-pyrimido[4,5-b]indol-7-yl)-4-methylphenyl]-3-(trifluoro-methyl)benzamide trifluoroacetate]	≤ 500	≤ 500	≤ 500	≤ 500
Cc1ncc(NC(=O)c2cc(F)cc(C(F)(F)F)c2)cc1-c1ccc2c(c1)[nH]c1ncncc12 [Example 71, 3-Fluoro-N-[6-methyl-5-(9H-pyrimido[4,5-b]indol-7-yl)pyridin-3-yl]-5-(trifluoromethyl)benzamide]	≤ 500	≤ 500	≤ 500	≤ 500
Cc1ncc(NC(=O)c2cc(-n3ccnc3)cc(C(F)(F)F)c2)cc1-c1ccc2c(c1)[nH]c1ncncc12 [Example 72, 3-(1H-imidazol-1-yl)-N-[6-methyl-5-(9H-pyrimido[4,5-b]indol-7-yl)pyridin-3-yl]-5-(trifluoromethyl)benzamide tris(trifluoroacetate)]	≤ 500	≤ 500	≤ 500	≤ 500
Cc1ncc(NC(=O)c2cc(-n3cncn3)cc(C(F)(F)F)c2)cc1-c1ccc2c(c1)[nH]c1ncncc12 [Example 73, N-[6-methyl-5-(9H-pyrimido[4,5-b]indol-7-yl)pyridin-3-yl]-3-(1H-1,2,4-triazol-1-yl)-5-(trifluoromethyl)benzamide bis(trifluoroacetate)]	≤ 500	≤ 500	≤ 500	≤ 500
Cc1ncc(NC(=O)c2cc(-n3cnc(C=O)c3)cc(C(F)(F)F)c2)cc1-c1ccc2c(c1)[nH]c1ncncc12 [Example 74, 3-(4-formyl-1H-imidazol-1-yl)-N-[6-methyl-5-(9H-pyrimido[4,5-b]indol-7-yl)pyridin-3-yl]-5-(trifluoromethyl)benzamide bis(trifluoroacetate)]	≤ 500	≤ 500	≤ 500	≤ 500
Cc1ncc(NC(=O)c2cc(-n3cnc(CO)c3)cc(C(F)(F)F)c2)cc1-c1ccc2c(c1)[nH]c1ncncc12 [Example 75, 3-[4-(hydroxymethyl)-1H-imidazol-1-yl]-N-[6-methyl-5-(9H-pyrimido[4,5-b]indol-7-yl)pyridin-3-yl]-5-(trifluoromethyl)benzamide tris(trifluoroacetate) (salt)]	≤ 500	≤ 500	≤ 500	≤ 500

Continued, in another order:

IC50 [1] [nM]	IC50 [2] [nM]	IC50 [3] [nM]	SMILES	GI50 (TF1-BCRABL1 cells) [nM]
≤ 500	≤ 500	≤ 500	Cc1ccc(NC(=O)c2cc(N3CCC(O)C3)cc(C(F)(F)F)c2)cc1-c1ccc2c(c1)[nH]c1ncncc12 (stereo not shown) [Example 34, 3-(3-hydroxypyrrolidin-1-yl)-N-[4-methyl-3-(9H-pyrimido-[4,5-b]indol-7-yl)phenyl]-5-(trifluoromethyl)benzamide]	≤ 500
≤ 500	≤ 500	≤ 500	Cc1ccc(NC(=O)c2cc(NCCCn3ccnc3)cc(C(F)(F)F)c2)cc1-c1ccc2c(c1)[nH]c1ncncc12 [Example 35, 3-{[3-(1H-imidazol-1-yl)-propyl]amino}-N-[4-methyl-3-(9H-pyrimido[4,5-b]indol-7-yl)phenyl]-5-(trifluoromethyl)-benzamide]	≤ 500
≤ 500	≤ 500	≤ 500	Cc1ccc(NC(=O)c2cc(N(C)C)cc(C(F)(F)F)c2)cc1-c1ccc2c(c1)[nH]c1ncncc12 [Example 36, 3-(dimethylamino)-N-[4-methyl-3-(9H-pyrimido[4,5-b]-indol-7-yl)phenyl]-5-(trifluoromethyl)benzamide]	≤ 500
≤ 500	≤ 500	≤ 500	Cc1ccc(NC(=O)c2cc(N3CCC(N(C)C)C3)cc(C(F)(F)F)c2)cc1-c1ccc2c(c1)[nH]c1ncncc12 (stereo not shown) [Example 37, 3-[3-(dimethylamino)-pyrrolidin-1-yl]-N-[4-methyl-3-(9H-pyrimido[4,5-b]indol-7-yl)phenyl]-5-(trifluoromethyl)-benzamide]	≤ 500
